# According to the supplement of paper PMC12490022:
# ± gives the uncertainty stated by the source.
# System: ozone
# Assay: apparent second-order rate constant for reaction with ozone (kapp,O3) (M-1 s-1); higher = faster oxidation by ozone
# Details: pH 7; temperature: 22 C; OH radical scavenger: tBuOH 80 mM; phosphate 4 mM
# Experimental: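 Apparent second-order rate constants for reaction with ozone at pH 7 were determined by multicompound competition kinetics. Mixtures of targets and competitors (10 ug/L each) were ozonated in 4 mM phosphate buffer, pH 7, with 80 mM tBuOH as OH-radical scavenger, at 22 ± 1 °C. Peak-area abatement was measured by HPLC-HRMS/MS and k was derived from ln-ln slopes against competitors with known k (R2 > 0.9, >= 10 points, slope 0.1-10). Experiments were run in triplicate on 3 days; the value is the mean over valid competitors ± SD.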
row,apparent second-order rate constant,SMILES
1,87 ± 4.5,CC1CC2C(C(O)CC3(C)C2CCC3(O)C(=O)CO)C2(C)C=CC(=O)C=C12 (centres undefined) [Methylprednisolone]
2,295000 ± 26000,C[N+]1([O-])CCN2c3ccccc3Cc3ccccc3C2C1 (centres undefined) [Mianserin-N-oxide]
3,1.94e+06 ± 100000,CN1CCN2c3ccccc3Cc3ccccc3C2C1 (centres undefined) [Mianserin]
4,957000 ± 81000,CN1CCN2c3ncccc3Cc3ccccc3C2C1 (centres undefined) [Mirtazapine]
5,7.2e+07 ± 1.5e+07,COc1c(C)c2c(c(O)c1CC=C(C)CCC(=O)O)C(=O)OC2 [Mycophenolic acid]
6,89 ± 4.9,CC(=O)Nc1ccc(S(=O)(=O)Nc2ncccn2)cc1 [N4-Acetylsulfadiazine]
7,337000 ± 28000,COc1cc(OC)nc(NS(=O)(=O)c2ccc(NC(C)=O)cc2)n1 [N4-Acetylsulfadimethoxine]
8,815 ± 43,CC(=O)Nc1ccc(S(=O)(=O)Nc2nc(C)cc(C)n2)cc1 [N4-Acetylsulfamethazine]
9,947 ± 280,CC(=O)Nc1ccc(S(=O)(=O)Nc2ccccn2)cc1 [N4-Acetylsulfapyridine]
10,1.02e+07 ± 1.2e+06,CC(=O)Nc1ccc(S(=O)(=O)Nc2nccs2)cc1 [N4-Acetylsulfathiazole]
11,1.99e+06 ± 120000,"CNCC(c1ccc(O)cc1)C1(O)CCCCC1 (centres undefined) [N,O-Didesmethylvenlafaxine]"
12,10300 ± 980,CCC1OC(=O)C(C)C(OC2CC(C)(OC)C(O)C(C)O2)C(C)C(OC2OC(C)CC(NC)C2O)C(C)(O)CC(C)CN(C)C(C)C(O)C1(C)O (centres undefined) [N-Desmethylazithromycin]
13,532 ± 28,CNCCCC1(c2ccc(F)cc2)OCc2cc(C#N)ccc21 (centres undefined) [N-Desmethylcitalopram]
14,6500 ± 520,CCC1OC(=O)C(C)C(OC2CC(C)(OC)C(O)C(C)O2)C(C)C(OC2OC(C)CC(NC)C2O)C(C)(OC)CC(C)C(=O)C(C)C(O)C1(C)O (centres undefined) [N-Desmethylclarithromycin]
15,975 ± 49,CNCCC(c1ccccc1)c1ccccn1 (centres undefined) [N-Desmethylpheniramine]
16,26000 ± 2800,CC(C)c1nc(NS(C)(=O)=O)nc(-c2ccc(F)cc2)c1C=CC(O)CC(O)CC(=O)O (centres undefined) [N-Desmethylrosuvastatin]
17,993 ± 55,CNCC(c1ccc(OC)cc1)C1(O)CCCCC1 (centres undefined) [N-Desmethylvenlafaxine]
18,34.3 ± 2.1,N#Cc1ccc2c(c1)COC2(CCCN)c1ccc(F)cc1 (centres undefined) [N-Didesmethylcitalopram]
19,278000 ± 25000,COC(=O)C(C)c1ccc2cc(OC)ccc2c1 (centres undefined) [Naproxen methyl ester]
20,500000 ± 46000,COc1ccc2cc(C(C)C(=O)O)ccc2c1 (centres undefined) [Naproxen]

row,apparent second-order rate constant,SMILES
1,86 ± 9,Cc1ccnc2c1NC(=O)c1cccnc1N2C1CC1 [Nevirapine]
2,332000 ± 30000,CN1CCCC1c1cccnc1 (centres undefined) [Nicotine]
3,42 ± 2.5,NCCC(Oc1ccc(C(F)(F)F)cc1)c1ccccc1 (centres undefined) [Norfluoxetine]
4,0.401 ± 0.014,CCOC(=O)c1c(COCC(=O)O)nc(C)c(C(=O)OC)c1-c1ccccc1Cl [O-Des[2-aminoethyl]-O-carboxymethyl-dehydroamlodipine]
5,570000 ± 48000,Cc1cccc(C)c1NC(=O)CN1CCN(CC(O)CO)CC1 (centres undefined) [O-Desarylranolazine]
6,6.6e+06 ± 500000,CC(C(=O)O)c1ccc2cc(O)ccc2c1 (centres undefined) [O-Desmethylnaproxen]
7,2.09e+06 ± 170000,CN(C)CC(c1ccc(O)cc1)C1(O)CCCCC1 (centres undefined) [O-Desmethylvenlafaxine]
8,87000 ± 7700,CCC(CC)OC1C=C(C(=O)O)CC(N)C1NC(C)=O (centres undefined) [Oseltamivir acid]
9,6130 ± 510,CCOC(=O)C1=CC(OC(CC)CC)C(NC(C)=O)C(N)C1 (centres undefined) [Oseltamivir]
10,4 ± 2.5,O=c1nc2[nH][nH]cc-2c(=O)[nH]1 [Oxypurinol]
11,108 ± 5.6,COc1ccnc(CS(=O)c2nc3ccc(OC(F)F)cc3[nH]2)c1OC (centres undefined) [Pantoprazole]
12,1.1e+07 ± 2.4e+06,CC(=O)Nc1ccc(O)c(SCC(NC(=O)CCC(N)C(=O)O)C(=O)NCC(=O)O)c1 (centres undefined) [Paracetamol-glutathione]
13,3.3 ± 0.3,CC(=O)Nc1ccc(OS(=O)(=O)O)cc1 [Paracetamol-sulfate]
14,2.4e+06 ± 180000,CC(=O)Nc1ccc(O)cc1 [Paracetamol]
15,68 ± 8,C#CC[N+](C)([O-])Cc1ccccc1 (centres undefined) [Pargyline-N-oxide]
16,2.4 ± 0.3,C[N+](C)([O-])CCC(c1ccccc1)c1ccccn1 (centres undefined) [Pheniramine-N-oxide]
17,17600 ± 1700,CN(C)CCC(c1ccccc1)c1ccccn1 (centres undefined) [Pheniramine]
18,2890 ± 220,CNCC(O)c1cccc(OS(=O)(=O)O)c1 (centres undefined) [Phenylephrine-3-O-sulfate]
19,158000 ± 7000,CNCC(O)c1cccc(O)c1 (centres undefined) [Phenylephrine]
20,104 ± 5.6,CC12C=CC(=O)C=C1CCC1C2C(O)CC2(C)C1CCC2(O)C(=O)CO (centres undefined) [Prednisolone]

row,apparent second-order rate constant,SMILES
1,324 ± 15,CC12C=CC(=O)C=C1CCC1C2C(=O)CC2(C)C1CCC2(O)C(=O)CO (centres undefined) [Prednisone]
2,2.4 ± 0.3,CCC1(c2ccccc2)C(=O)NCNC1=O [Primidone]
3,174000 ± 16000,CC(C)NCC(O)COc1cccc2ccccc12 (centres undefined) [Propanolol]
4,3.45e+06 ± 340000,CNC(=C[N+](=O)[O-])NCCSCc1ccc(C[N+](C)(C)[O-])o1 [Ranitidine-N-oxide]
5,1.75e+06 ± 70000,CNC(=C[N+](=O)[O-])NCC[S+]([O-])Cc1ccc(CN(C)C)o1 (centres undefined) [Ranitidine-S-oxide]
6,6.4e+06 ± 500000,CNC(=C[N+](=O)[O-])NCCSCc1ccc(CN(C)C)o1 [Ranitidine]
7,3250 ± 260,CC(C)c1nc(N(C)S(C)(=O)=O)nc(-c2ccc(F)cc2)c1C=CC(O)CC(O)CC(=O)O (centres undefined) [Rosuvastatin]
8,16.7 ± 1.8,C[C@H](C[C@@H](Cc1ccc(-c2ccccc2)cc1)NC(=O)CCC(=O)O)C(=O)O [Sacubitrilat (LBQ657)]
9,< 0.401,O=C(O)CCC(=O)O [Succinic acid]
10,1.23e+06 ± 110000,Nc1ccc(S(=O)(=O)Nc2ncccn2)cc1 [Sulfadiazine]
11,1.53e+06 ± 100000,COc1cc(NS(=O)(=O)c2ccc(N)cc2)nc(OC)n1 [Sulfadimethoxine]
12,933000 ± 81000,Cc1cc(C)nc(NS(=O)(=O)c2ccc(N)cc2)n1 [Sulfamethazine]
13,37000 ± 8000,Cc1cc(N(C2OC(C(=O)O)C(O)C(O)C2O)S(=O)(=O)c2ccc(N)cc2)no1 (centres undefined) [Sulfamethoxazole-N1-glucuronide]
14,537000 ± 180000,Nc1ccc(S(=O)(=O)Nc2ccccn2)cc1 [Sulfapyridine]
15,9.8e+06 ± 700000,Nc1ccc(S(=O)(=O)Nc2nccs2)cc1 [Sulfathiazole]
16,41 ± 5,CC[N+]1([O-])CCCC1CNC(=O)c1cc(S(N)(=O)=O)ccc1OC (centres undefined) [Sulpiride-N-oxide]
17,1.75e+06 ± 70000,CCN1CCCC1CNC(=O)c1cc(S(N)(=O)=O)ccc1OC (centres undefined) [Sulpiride]
18,111 ± 5,CCCc1nc2c(C)cc(-c3nc4ccccc4n3C)cc2n1Cc1ccc(-c2ccccc2C(=O)OC2OC(C(=O)O)C(O)C(O)C2O)cc1 (centres undefined) [Telmisartan-O-acyl-glucuronide]
19,120 ± 6.1,CCCc1nc2c(C)cc(-c3nc4ccccc4n3C)cc2n1Cc1ccc(-c2ccccc2C(=O)O)cc1 [Telmisartan]

row,SMILES,apparent second-order rate constant
1,CCC(=O)C(CC(C)N(C)C)(c1ccccc1)c1ccccc1 (centres undefined) [Methadone],4250 ± 360
2,COC(=O)C(c1ccccc1)C1CCCCN1 (centres undefined) [Methylphenidate],4300 ± 360
3,CN1CCC23c4c5ccc(O)c4OC2C(O)C=CC3C1C5 (centres undefined) [Morphine],3.8e+07 ± 8e+06
4,CNCC(CC(=O)O)CC(C)C (centres undefined) [N-Methylpregabalin],143 ± 7.6
5,COc1ccc2c3c1OC1C(O)C=CC4C(C2)NCCC341 (centres undefined) [Norcodeine],2.68e+06 ± 51000
6,C#CCNC(C)Cc1ccccc1 (centres undefined) [Nordeprenyl],14000 ± 1200
7,CC(N)C(O)c1ccccc1 (centres undefined) [Norephedrine],45.5 ± 2.3
8,NC1(c2ccccc2Cl)CCCCC1=O (centres undefined) [Norketamine],37.5 ± 2.5
9,c1ccc2c(c1)Cc1ccccc1N1CCNCC21 (centres undefined) [Normianserin],570000 ± 48000
10,c1cncc(C2CCCN2)c1 (centres undefined) [Nornicotine],6350 ± 520
11,CC(C)CC(CN)CC(=O)O (centres undefined) [Pregabalin],15.6 ± 1.1
12,CNC(C)C(O)c1ccccc1 (centres undefined) [Pseudoephedrine],1370 ± 110
13,O=C(O)C(c1ccccc1)C1CCCCN1 (centres undefined) [Ritalinic acid],139 ± 7.2
14,CCC(c1cccc(OS(=O)(=O)O)c1)C(C)CN(C)C (centres undefined) [Tapentadol-O-sulfate],1530 ± 150
15,CCC(c1cccc(O)c1)C(C)CN(C)C (centres undefined) [Tapentadol],1.83e+06 ± 140000
